The source made the active and inactive calls. The calls are words filed in the database; no cut-off is given here.
Experiments:
PBMC [1] = assay: Cytotoxicity against human PBMC cells assessed as reduction in cell viability incubated for 24 hrs by CellTiter-Glo luminescent cell viability assay; format: cell-based; settings: read-out: IC50
[2] = target: T1, M-phase inducer phosphatase 2 (Homo sapiens, UniProt P30305)
T1 sequence (P30305 whole entry): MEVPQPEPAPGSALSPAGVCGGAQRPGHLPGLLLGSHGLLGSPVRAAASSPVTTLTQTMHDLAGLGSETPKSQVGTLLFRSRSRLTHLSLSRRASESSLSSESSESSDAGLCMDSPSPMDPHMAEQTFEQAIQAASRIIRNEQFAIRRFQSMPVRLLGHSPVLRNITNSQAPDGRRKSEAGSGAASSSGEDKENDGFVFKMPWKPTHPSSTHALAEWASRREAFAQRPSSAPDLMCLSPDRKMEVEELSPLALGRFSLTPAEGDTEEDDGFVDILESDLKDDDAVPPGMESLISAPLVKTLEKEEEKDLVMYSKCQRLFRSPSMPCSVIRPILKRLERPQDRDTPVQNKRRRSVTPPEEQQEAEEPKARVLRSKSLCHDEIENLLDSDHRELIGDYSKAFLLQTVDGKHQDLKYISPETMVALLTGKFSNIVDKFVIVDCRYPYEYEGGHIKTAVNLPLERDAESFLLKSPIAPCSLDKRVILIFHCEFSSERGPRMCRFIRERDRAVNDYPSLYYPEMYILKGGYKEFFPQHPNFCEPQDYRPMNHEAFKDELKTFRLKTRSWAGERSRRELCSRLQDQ
Description: Inhibition of recombinant Cdc25B (unknown origin) using OMFP as substrate measured every 30 sec for 10 mins by fluorometric assay

[3] = target: T2, Dual specificity mitogen-activated protein kinase kinase 7 (Homo sapiens, UniProt O14733); assay: biochemical
T2 sequence (O14733 whole entry): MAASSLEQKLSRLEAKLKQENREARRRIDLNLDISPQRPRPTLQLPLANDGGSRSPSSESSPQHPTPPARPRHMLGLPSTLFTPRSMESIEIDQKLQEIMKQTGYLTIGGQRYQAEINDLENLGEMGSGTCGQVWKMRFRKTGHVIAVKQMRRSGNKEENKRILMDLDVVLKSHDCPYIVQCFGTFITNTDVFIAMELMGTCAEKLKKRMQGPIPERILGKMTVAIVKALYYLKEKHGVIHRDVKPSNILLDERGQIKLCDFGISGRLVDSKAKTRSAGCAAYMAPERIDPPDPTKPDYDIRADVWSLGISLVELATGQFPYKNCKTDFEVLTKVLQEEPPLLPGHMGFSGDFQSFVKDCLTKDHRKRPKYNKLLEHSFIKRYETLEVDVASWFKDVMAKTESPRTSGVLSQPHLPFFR
Description: Binding affinity to MKK7 (unknown origin) expressed in HEK293 cells assessed as dissociation constant by kinomescan method

U-937 = assay: Cytotoxicity against human U937 cells assessed as reduction in cell viability incubated for 24 hrs by CellTiter-Glo luminescent cell viability assay; format: functional, cell-based; settings: U-937, 24 h
A549 [4] = assay: Cytotoxicity against human A549 cells assessed as reduction in cell viability incubated for 24 hrs by CellTiter-Glo luminescent cell viability assay; format: functional, cell-based; settings: A549, 24 h
[5] = target: T3, M-phase inducer phosphatase 1 (Homo sapiens, UniProt P30304)
T3 sequence (P30304 whole entry): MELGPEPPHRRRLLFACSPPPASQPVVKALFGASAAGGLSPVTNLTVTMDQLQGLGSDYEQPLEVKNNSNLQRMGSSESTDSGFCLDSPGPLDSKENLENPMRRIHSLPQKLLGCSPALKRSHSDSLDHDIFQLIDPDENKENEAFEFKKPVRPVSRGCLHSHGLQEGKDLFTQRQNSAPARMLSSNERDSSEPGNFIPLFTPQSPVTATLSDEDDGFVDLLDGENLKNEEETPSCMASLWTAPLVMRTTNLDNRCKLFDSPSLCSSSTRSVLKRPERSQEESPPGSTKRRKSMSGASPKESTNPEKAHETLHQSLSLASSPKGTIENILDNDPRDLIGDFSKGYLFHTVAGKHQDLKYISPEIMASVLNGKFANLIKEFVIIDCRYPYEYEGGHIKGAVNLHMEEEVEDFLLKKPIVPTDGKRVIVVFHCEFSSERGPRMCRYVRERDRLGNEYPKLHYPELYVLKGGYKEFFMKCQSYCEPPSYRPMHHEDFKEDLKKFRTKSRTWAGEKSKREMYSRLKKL
Description: Inhibition of recombinant Cdc25A (unknown origin) using OMFP as substrate measured every 30 sec for 10 mins by fluorometric assay

MCF7 [6] = assay: Cytotoxicity against human MCF7 cells assessed as reduction in cell viability incubated for 24 hrs by CellTiter-Glo luminescent cell viability assay; format: functional, cell-based; settings: MCF7, 24 h
LS174T [7] = assay: Cytotoxicity against human LS174T cells assessed as reduction in cell viability incubated for 24 hrs by CellTiter-Glo luminescent cell viability assay; format: functional, cell-based
Jurkat = assay: cells; settings: Homo sapiens, 24 h
Description: Cytotoxicity against human Jurkat cells assessed as reduction in cell viability incubated for 24 hrs by CellTiter-Glo luminescent cell viability assay

HL-60 = assay: Cytotoxicity against human HL60 cells assessed as reduction in cell viability incubated for 24 hrs by CellTiter-Glo luminescent cell viability assay; format: functional, cell-based; settings: HL-60, 24 h
THP-1 = assay: Cytotoxicity against human THP1 cells assessed as reduction in cell viability incubated for 24 hrs by CellTiter-Glo luminescent cell viability assay; format: functional, cell-based; settings: THP-1, 24 h
MONO-MAC-6 = assay: Cytotoxicity against human MONO-MAC-6 cells assessed as reduction in cell viability incubated for 24 hrs by CellTiter-Glo luminescent cell viability assay; format: functional, cell-based; settings: MONO-MAC-6, 24 h
[8] = target: T4, Neutrophil elastase (Homo sapiens) (UniProt P08246); assay: Inhibition of recombinant HNE (unknown origin) at <50 uM using N-methylsuccinyl-Ala-Ala-Pro-Val-7-amino-4-methylcoumarin, as a substrate measured every 30 sec for 10 mins by fluorometric assay
T4 sequence (whole entry): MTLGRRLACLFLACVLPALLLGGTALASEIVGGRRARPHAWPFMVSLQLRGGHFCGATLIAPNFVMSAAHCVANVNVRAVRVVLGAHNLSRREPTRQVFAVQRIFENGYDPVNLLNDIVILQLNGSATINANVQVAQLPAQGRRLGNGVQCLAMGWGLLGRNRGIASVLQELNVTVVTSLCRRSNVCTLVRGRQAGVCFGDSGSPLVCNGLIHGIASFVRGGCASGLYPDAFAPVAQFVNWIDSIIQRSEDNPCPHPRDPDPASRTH

SW982 [9] = assay: Cytotoxicity against human SW982 cells assessed as reduction in cell viability incubated for 24 hrs by CellTiter-Glo luminescent cell viability assay; format: functional, cell-based; settings: SW982, 24 h
[10] = target: T5, M-phase inducer phosphatase 1 (Homo sapiens) (UniProt P30304); assay: Inhibition of recombinant Cdc25A (unknown origin) at <50 uM using OMFP as substrate measured every 30 sec for 10 mins by fluorometric assay
T5 sequence (whole entry): T3 sequence (P30304 whole entry)

[11] = target: T6, Dual specificity mitogen-activated protein kinase kinase 7 (Homo sapiens) (UniProt O14733); assay: Binding affinity to MKK7 (unknown origin) expressed in HEK293 cells assessed as dissociation constant at <30 uM by kinomescan method; format: cell-based
T6 sequence (whole entry): T2 sequence (O14733 whole entry)

[12] = target: T7, M-phase inducer phosphatase 2 (Homo sapiens) (UniProt P30305); assay: Inhibition of recombinant Cdc25B (unknown origin) at <50 uM using OMFP as substrate measured every 30 sec for 10 mins by fluorometric assay
T7 sequence (whole entry): T1 sequence (P30305 whole entry)

LS174T [13] = assay: Cytotoxicity against human LS174T cells assessed as reduction in cell viability at <50 uM incubated for 24 hrs by CellTiter-Glo luminescent cell viability assay; format: functional, cell-based
A549 [14] = assay: Cytotoxicity against human A549 cells assessed as reduction in cell viability at <50 uM incubated for 24 hrs by CellTiter-Glo luminescent cell viability assay; format: functional, cell-based
SW982 [15] = assay: Cytotoxicity against human SW982 cells assessed as reduction in cell viability at <50 uM incubated for 24 hrs by CellTiter-Glo luminescent cell viability assay; format: functional, cell-based
PBMC [16] = assay: Cytotoxicity against human PBMC cells assessed as reduction in cell viability at <50 uM incubated for 24 hrs by CellTiter-Glo luminescent cell viability assay; format: cell-based
MCF7 [17] = assay: Cytotoxicity against human MCF7 cells assessed as reduction in cell viability at <50 uM incubated for 24 hrs by CellTiter-Glo luminescent cell viability assay; format: functional, cell-based

Row | Structure (SMILES) | IC50 [2] [µM] | IC50 (U-937) [µM] | IC50 [5] [µM] | IC50 (Jurkat) [µM] | IC50 (HL-60) [µM] | IC50 (THP-1) [µM] | IC50 (MONO-MAC-6) [µM] | inhibition [8] | inhibition [11] | inhibition [12] | further results
1 | O=C(O)c1cccc(NC2=C(Cl)C(=O)c3ccccc3C2=O)c1 | 24.3 | 7.6 | 32.9 | 8.2 | 12.1 | 8.6 | 13.4 | inactive |  |  | IC50 (PBMC [1]): 37.9 µM; Kd [3]: 1.9 µM; IC50 (A549 [4]): 26.2 µM; IC50 (MCF7 [6]): 28.5 µM; IC50 (LS174T [7]): 11.7 µM; IC50 (SW982 [9]): 5.5 µM
2 | COC(=O)c1ccc(NC2=C(OC)C(=O)c3ccccc3C2=O)cc1 |  |  |  |  |  |  |  | inactive | inactive | inactive | inhibition [10]: inactive
3 | O=C1C(Cl)=C(NCCCN2CCOCC2)C(=O)c2ccccc21 |  |  |  |  |  |  |  | inactive | inactive | inactive | inhibition [10]: inactive
4 | COC1=C(OC)C(=O)c2ccccc2C1=O | 17.4 | 11.3 | 8.9 |  | 5.4 | 8.2 | 3.6 | inactive |  |  | IC50 (PBMC [1]): 18.5 µM; Kd [3]: 27 µM; IC50 (A549 [4]): 15.6 µM; IC50 (MCF7 [6]): 6.3 µM; IC50 (LS174T [7]): 27.9 µM; IC50 (SW982 [9]): 20.6 µM
5 | COC1=C(C)C(=O)c2ccccc2C1=O | 33.1 | 35.1 | 22.3 | 49.2 | 20.4 | 47.3 | 18.4 | inactive |  |  | Activity (LS174T [13]): inactive; Activity (A549 [14]): inactive; Activity (SW982 [15]): inactive; Activity [11]: inactive; Activity (PBMC [16]): Non-Toxic
6 | CC(C)(C)[C@H]1CC[C@H](CC2=C(O)C(=O)c3ccccc3C2=O)CC1 [BUPARVAQUONE] | 12 |  |  |  |  |  |  | inactive |  |  | inhibition [10]: inactive; Activity [11]: inactive
7 | O=C1C(Cl)=C(NCCO)C(=O)c2ccccc21 |  |  | 45.3 |  |  |  |  | inactive | inactive | inactive | 
8 | COc1ccc(OC)c2c1C(=O)C=C(SCCC(=O)O)C2=O | 7.8 | 26.6 | 26 | 21.3 | 28.7 | 33.3 | 12.8 | inactive |  |  | Activity (LS174T [13]): inactive; Activity (A549 [14]): inactive; Activity (SW982 [15]): inactive; Activity [11]: inactive; Activity (MCF7 [17]): inactive; Activity (PBMC [16]): Non-Toxic
9 | O=C(O)CNC1=C(Cl)C(=O)c2ccccc2C1=O |  |  | 36 |  |  |  |  | inactive | inactive | inactive | 
10 | O=C1C(SCCO)=C(SCCO)C(=O)c2ccccc21 |  | 3.9 |  | 3.7 | 1 |  | 4.2 | inactive |  |  | IC50 (PBMC [1]): 7.8 µM; Kd [3]: 1.1 µM; IC50 (A549 [4]): 13.1 µM; IC50 (MCF7 [6]): 9.4 µM; IC50 (LS174T [7]): 18.1 µM; IC50 (SW982 [9]): 7.9 µM
11 | O=C1C(Cl)=C(NCCCO)C(=O)c2ccccc21 |  |  | 45.7 |  |  |  |  | inactive | inactive | inactive | 

— ChEMBL document CHEMBL4311981, “Synthesis, anticancer activity, and molecular modeling of 1,4-naphthoquinones that inhibit MKK7 and Cdc25” (Eur J Med Chem, 2019)
